From article PMC3479139, “Diverse Small Molecule Inhibitors of Human Apurinic/Apyrimidinic Endonuclease APE1 Identified from a Screen of a Large Public Collection” (PLoS ONE, 2012)

How the values were obtained:
[1] = target: T1, APE1 (Homo sapiens, UniProt P27695); test: Gel-based APE1 incision assay with fluorescence (TAMRA) detection; type: biochemical
T1 construct: made in house

[2] = target: T1, APE1; test: Fluorescence polarization (FP) displacement assay of APE1 binding to AP-DNA probe; conditions: read-out: FP IC50;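 also: TAMRA 5′-labeled duplex DNA with THF abasic site (5 nM) and APE1 (20 nM), Mg2+-free buffer, 15 min at room temperature, inhibition seen as lowered polarization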
[3] = target: T2, E. coli Endo IV (Escherichia coli, UniProt P0A6C1); test: E. coli Endo IV profiling counterscreen; type: biochemical; conditions: read-out: EndoIV IC50;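 also: selectivity counterscreen of candidate APE1 inhibitors against the bacterial endonuclease Endo IV, run in the same assay format as the primary APE1 high-throughput screen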
T2 construct: made in house
Excerpt: In order to screen out nonselective compounds, such as non-specific DNA binders and inhibitors of related enzymes, we used a miniaturized ThO DNA displacement assay and a counterscreen against the bacterial endonuclease E. coli Endo IV, respectively, following the previously published protocols [21].
To probe the selectivity of the candidate APE1 inhibitors, we tested them against E. coli EndoIV [36], employing the same assay as used in the HTS.

[4] = target: double-stranded 17-mer DNA fragment; test: ThO (Thiazole Orange) DNA displacement assay; type: binding; conditions: read-out: ThO-DNA binding IC50;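 also: miniaturized displacement of the intercalating dye from unlabeled duplex DNA, used to flag nonspecific DNA binders, chiefly intercalators, groove binders may be missed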
[5] = target: T1, APE1; test: Fluorogenic kinetic qHTS APE1 incision assay (primary screen and retest of cherrypicked samples); type: biochemical;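 also: purified APE1 cleaving a fluorophore/dark-quencher labelled 17-mer duplex DNA bearing a tetrahydrofuran AP site, fluorescence rise followed kinetically over the first 2 min, inhibition normalized to controls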
Description: All screening operations were performed on a fully integrated robotic system (Kalypsys, San Diego, CA) [28] with library plates screened proceeding from the lowest to the highest concentration to minimize compound carryover [26]. Vehicle-only plates, with DMSO being pin-transferred to the entire column 5–48 compound area, were included regularly throughout the screen in order to record any systematic shifts in assay signal. During the screen, reagent bottles were kept at 4°C and all liquid lines were covered with aluminum foil to minimize degradation.
Screening data were corrected and normalized, and concentration–effect relationships was derived using in-house developed algorithms [25].
To screen for inhibitors of APE1 incision activity, we employed a purified-enzyme biochemical assay with a model substrate featuring a red-shifted fluorescent reporter in combination with a dark non-emitting quencher. These moieties were incorporated as end labels onto a 17-mer double-stranded DNA fragment containing a centrally-located tetrahydrofuran AP site sugar mimetic, which serves as the APE1 cleavage site. Upon APE1-catalyzed strand scission immediately 5′ to the AP site analog, the shortened oligodeoxynucleotide carrying the fluorescent reporter spontaneously dissociates from the rest of the substrate, leading to an increase in fluorescence due to its spatial separation from the dark quencher (Figure 1A).
Using a high-speed whole-plate fluorescence imager, the assay data for the entire screen was conducted in kinetic mode, with the APE1 incision reaction being monitored over the initial linear time frame of 2 min (Figure 1B). Thus, any inhibition associated with each sample was computed from the alteration in fluorescence intensity over the time-course measurement period, after normalization against the appropriate controls (Figure 1B, inset).

[6] = target: T1, APE1; test: Gel-based radiotracer (32P) APE1 incision assay; type: biochemical; design: concentration or dose not given beside the values; conditions: percent incision shown; entries 1-112;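 also: APE1 incision reactions ran 5 min at 37 °C, with cleaved product and intact substrate resolved electrophoretically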
[7] = estimated IC50, fluorophore detection, entries 113-223, read-out: F-PAGE Assay IC50
[8] = initial quantitative high-throughput screen, read-out: APE1 qHTS IC50
[9] = entries 113-223: fluorophore detection, estimated IC50, read-out: Gel-based electrophoretic separation assay with fluorophore detection, estimated IC50 (column headed Radiotracer Assay (%Activity))
[10] = retest of cherrypicked sample, read-out: APE1 Retest IC50

T1 sequence (P27695 whole entry): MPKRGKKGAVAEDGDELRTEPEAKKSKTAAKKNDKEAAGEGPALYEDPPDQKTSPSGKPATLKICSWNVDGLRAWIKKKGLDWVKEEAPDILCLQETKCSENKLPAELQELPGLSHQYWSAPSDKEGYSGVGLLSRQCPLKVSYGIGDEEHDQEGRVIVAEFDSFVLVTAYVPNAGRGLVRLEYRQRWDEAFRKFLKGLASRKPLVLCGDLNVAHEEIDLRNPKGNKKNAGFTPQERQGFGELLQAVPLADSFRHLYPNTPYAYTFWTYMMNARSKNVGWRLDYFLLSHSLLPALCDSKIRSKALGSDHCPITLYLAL

Compound	IC50 [1, 7] [µM]	IC50 [2] [µM]	IC50 [3] [µM]	IC50 [4] [µM]	IC50 [5, 8] [µM]	IC50 [1, 9] [µM]	IC50 [5, 10] [µM]	Radiotracer Assay (%Activity) [6] [%]
COC(=O)c1cc(NC(=O)Cc2cccs2)cc(C(=O)OC)c1 [MLS001211293]	7.1	> 57	> 57	> 57	13.4			
COc1cccc(NC(=O)CN(C)C(=O)c2cc3c(s2)CCC3)c1 [MLS001142077]		> 57	> 57	20.4	10.6	10	32.4	
CC(C)(C)OC(=O)C[C@@H]1C/C=C\C[C@@H](CC(=O)NCCO)C(=O)N[C@H](Cc2c[nH]c3ccccc23)COC1=O [MLS002320206]		> 57	> 57	> 57	15	20	16.2	
CC(=O)c1ccccc1NS(=O)(=O)c1cccc2nsnc12 [MLS001008046]	5.6	28.9	> 57	> 57	5.3		8.1	
Cc1cccc(NC(=O)CNC(=O)c2cccc(-n3cccc3)c2)c1C [MLS001141795]	1.1	> 57	> 57	> 57	1.9		6.5	
CCNc1nc(NCC)n2c(SCC(=O)Nc3ccccc3C(F)(F)F)nnc2n1 [MLS001234389]		> 57	> 57	> 57	21.2	14.1	12.9	
Nc1c(C(=O)OCC(=O)Nc2cccc([N+](=O)[O-])c2)[nH]c(=O)[nH]c1=O [MLS002171489]	7.9	> 57	> 57	> 57	8.4		16.2	
O=C(COC(=O)c1ccccc1)Nc1ncc([N+](=O)[O-])s1 [MLS002171184]	1.6	> 57	> 57	32.4	3.4		11.5	
CSCC[C@H](NS(=O)(=O)c1ccc(C(C)=O)cc1)c1nnc2ccccn12 [MLS001158971]		> 57	> 57	> 57	21.2	22.4	9.1	
Cc1sc2ncnc(SCC(=O)Nc3ncccc3O)c2c1C [MLS002181609]		20.4	> 57	> 57	29.9	14.1	10.2	
CCCCN(C(=O)c1cccc(-n2cccc2)c1)c1c(N)n(Cc2ccccc2)c(=O)[nH]c1=O [MLS001159279]	2.8	> 57	> 57	> 57	2.7		12.9	
CCNc1nc(NCC)n2c(SCC(=O)Nc3cccc(F)c3)nnc2n1 [MLS001234358]	5	18.2	36.3	> 57	11.9	11.2	11.5	
COc1ccc(NC(=O)COC(=O)c2cc3c(s2)CCC3)cc1 [MLS002159150]	7.1	36.3	> 57	> 57	5.3		11.5	
COc1ccc(S(=O)(=O)N2CCN(C(=O)c3cc4c(s3)CCC4)CC2)cc1 [MLS002248682]	2	> 57	> 57	> 57	2.7		8.1	
O=C1C=C(c2ccc3cc[nH]c3c2)C[C@@H](c2ccc3c(c2)OCO3)C1 [MLS001060910]	3.2	> 57	> 57	> 57	11.9		18.2	
COCCN(C(=O)COC(=O)c1cc2c(s1)CCC2)c1c(N)n(Cc2ccccc2)c(=O)[nH]c1=O [MLS001080179]	0.3	> 57	> 57	> 57	0.8		1.1	
Cn1cnnc1SCC(=O)Nc1ncc([N+](=O)[O-])s1 [MLS002252055]	5	> 57	> 57	40.8	8.4		6.5	
c1ccc2c(NCCc3c[nH]c4ccccc34)c3ccccc3nc2c1 [MLS001195935]		> 57	> 57	32.4	18.9	25.1	18.2	
CC1=C(C(=O)OC(C)C)C(c2ccc(Cl)cc2)n2c(s/c(=C\c3ccc(OCC(=O)O)cc3)c2=O)=N1 (stereo not drawn) [MLS001178474]	1.4	> 57	> 57	10.2	6.7		5.1	
CC(=O)c1cccc(OCC(=O)N(C)CC(=O)NCc2ccco2)c1 [MLS002251323]	4	> 57	> 57	> 57	9.5		9.1	
O=C(O)C[C@@H]1C(=O)O[C@@H]2C(COC(=O)c3cc(O)c(O)c(O)c3)O[C@@H](OC(=O)c3cc(O)c(O)c(O)c3)[C@@H](OC(=O)c3cc(O)c(O)c4c3[C@H]1[C@H](O)C(=O)O4)[C@H]2OC(=O)c1cc(O)c(O)c(O)c1 (stereo partly drawn) [MLS000697665]		14.1	> 57	0.4	0.01		0.01	29
CC(=O)N[C@H]1C(O[C@@H]2O[C@H](C[C@@H](O)[C@H]3O[C@@H](N4CCC(=O)NC4=O)[C@H](O)[C@@H]3O)[C@H](O)[C@H](O)[C@H]2NC(=O)/C=C/CCCCCCCCCCC(C)C)OC(CO)[C@@H](O)[C@@H]1O (stereo partly drawn) [NCGC00161652]		31.6	> 57	> 57	7.9		2.5	26.5
N#C/C(=C/c1cccn1-c1cccc(C(=O)O)c1)c1ccc(Cl)cc1 [MLS000621431]		> 57	> 57	> 57	11.2		5	44
O=c1c(O)c(Br)ccc2c(Br)c(O)c(O)c(O)c12 [NCGC00160279]		> 57	> 57	1.26	1.1		0.4	37.9
CCN(CC)C(=O)CC(c1cc(OC)c(OC)c(OC)c1)c1c(OC)cc(OC)c2c(-c3ccccc3)cc(=O)oc12 (stereo not drawn) [MLS000879482]		12.6	> 57	> 57	22.4		5	37
CC1OC(OCC2OC(Oc3c(-c4ccc(O)cc4)oc4cc(O)cc(O)c4c3=O)C(O)C(O)C2O)C(O)C(O)C1O (stereo not drawn) [MLS000876823]		> 57	> 57	> 57	3.5		3.1	30
O=C(/C=C/c1ccc(O)c(O)c1)O[C@H](Cc1ccc(O)c(O)c1)C(=O)O [MLS000697677]		> 57	> 57	> 57	0.1		0.6	38
